Source: ChEMBL document CHEMBL3232986, “Identification of a novel series of potent HCV NS5B Site I inhibitors” (Bioorg Med Chem Lett, 2014)

Legend:
[1] = Inhibition of HCV genotype 1b wild type NS5B polymerase using biotinylated oligo dT12 primer as substrate after 4 hrs in presence of [3H]UTP; parameters: species or system Hepatitis C virus subtype 1b
Hepatitis C virus = experiment: Antiviral activity against HCV genotype 1a H77c infected in human HuH7 cells after 3 days by luciferase reporter gene assay; assay type: functional, cell-based, Hepacivirus hominis; conditions: Huh-7, 72 h
[2] = Half life in dog liver microsomes; assay type: ADME, Canis lupus familiaris
[3] = Half life in monkey liver microsomes; assay type: ADME, Macaca mulatta; conditions: rhesus monkey
[4] = Cytotoxicity against human HuH7 cells after 4 hrs by CellTitre-Blue assay; assay type: cell-based, Huh-7
[5] = Inhibition of CYP (unknown origin); assay type: ADME; conditions: human
Liver microsome = experiment: Metabolic stability in human liver microsomes; assay type: ADME

Compound | IC50 [1] [nM] | EC50 (Hepatitis C virus) [nM] | half-life [2] [min] | half-life [3] [min] | CC50 at 4 h [4] [nM] | inhibition (INH) [5] | Stability (Liver microsome)
COc1ccc2c(c1)[C@@H]1C[C@]1(C(=O)N1CC34CCC3(CN(C(=O)N(C)C)C4)C1)Cn1c-2c(C2CCCCC2)c2ccc(C(=O)NS(=O)(=O)C(C)C)cc21 (some centres not stated) | 3 | 12 | 22 | 24 | 16000 | – | –
COc1ccc2c(c1)[C@@H]1C[C@]1(C(=O)N1CC34CCC3(C1)CN(S(=O)(=O)C(C)C)C4)Cn1c-2c(C2CCCCC2)c2ccc(C(=O)NS(=O)(=O)N(C)C)cc21 (some centres not stated) | 3 | 6 | – | – | 5000 | Active | –
CCOCCN1CC23CCC2(C1)CN(C(=O)[C@]12C[C@H]1c1cc(OC)ccc1-c1c(C4CCCCC4)c4ccc(C(=O)NS(=O)(=O)C(C)C)cc4n1C2)C3 (some centres not stated) | – | 15 | – | – | 10000 | – | Unstable
